From a melting point compilation (Tetko et al.; mined from patent text by program, amines drawn as free bases though some values may be those of a salt)

SMILES | melting point [°C]
Cc1cn(C)c2cc(C(C)C)c(Oc3cnc(N)nc3N)cc12 | 185
Cc1nn2c(-c3cccc(NC(=O)OC(C)C)c3)ccnc2c1C(=O)c1cccs1 | 186 to 188
COc1ccc2cc([C@H](C)C(=O)NOCC(=O)NCCO[N+](=O)[O-])ccc2c1 | 40 to 44
CCCCSC(=NC(=O)N(CCC)CCC)NC(=O)NC(C)(C)C | 92 to 94
CN1CCc2c(F)c(F)c(N)c3c(=O)c(C(=O)O)cn1c23 | > 290
CC(C)C(=O)N[C@@H](CSC(=O)c1ccccc1)C(=O)NCCSC(=O)C(C)C | 155 to 157
CCn1cc(C(=O)O)c(=O)cc1-c1cccnc1 | 209 to 210
CCc1c(C)[nH]c2cc(OCCN3CCOCC3)c(Cl)cc2c1=O | 270 to 271
CON(C(=O)c1cn(C)nc1C(F)F)C(C)Cc1c(Cl)cc(Cl)cc1Cl (stereo unspecified) | 110 to 112
NS(=O)(=O)c1ccc(-c2c(-c3ccccc3)noc2CC(=O)C(F)(F)F)cc1 | 132 to 139
CCCCc1c2c(nc3ccccc13)-c1cc3c(c(=O)n1C2)COC(=O)CC3(O)CC (stereo unspecified) | 220 to 221
N#CC(C(=O)c1cc(F)c(Cl)cc1Cl)=C(N)C1CC1 | 95
CCOC(=O)CCc1cn(Cc2ccc(C(=O)NCc3nc(-c4ccccc4)oc3C)cc2)nc1-c1ccccc1 | 190 to 191
O=C1OC2(CCN(C(=O)Nc3cnc(-c4ccccc4)cn3)CC2)c2ccc(F)cc21 | 236 to 238
COC(=O)/C(=C/C=C/c1cc2cc(Cl)ccc2[nH]1)OC | 166 to 168
CCN1CCCC1Cc1cccc(NC(N)=O)c1 (stereo unspecified) | 114 to 116
Nc1ncnc2c1c(-c1cc(F)c(O)c(F)c1)nn2Cc1oc2ccc(F)cc2c(=O)c1-c1cccc(F)c1 | 274 to 278
COC(=O)CCCOc1cc(C(C)C)c2c(c1)S(=O)(=O)N(COC(=O)c1ccccc1)C2=O | 122 to 124
O=C(C1CCCCC1)N1CC(=O)N2CCCc3ccccc3C2C1 (stereo unspecified) | 187 to 190
NC(=O)NCC(C(=O)O)C(F)(F)F (stereo unspecified) | 149 to 150
O=C1Cc2cccc(Nc3ccccc3)c2N1 | 166 to 168
CCCCCN1C(=O)C2(COc3cc(F)c(Cl)cc32)c2ccccc21 (stereo unspecified) | 74 to 76
NC(=O)OC(=O)[C@@H]1Cc2ccccc2CN1C(=O)OCc1ccccc1 | 136 to 138
Fc1cccc(F)c1-c1cnc(-c2ccc(-c3ccc(OC(F)(F)F)cc3)cc2)nn1 | 199 to 202

SMILES | melting point [°C]
CC(C)(C)OC(=O)NCc1ccc(-n2c(-c3cccnc3N)nc3ccc(-c4cn[nH]c4)nc32)cc1 | 243 to 244
O=C(Cl)N(c1ccc(F)cc1)c1ccc(F)cc1 | 53 to 54
Nc1nc2c(c(=O)n1N)Cc1nc(N)n(N)c(=O)c1C2 | > 300
CS(=O)(=O)NNC(=O)c1nc(CS(=O)(=O)c2ccc(Cl)cc2)no1 | 198 to 202
CC(C)n1nc(-c2cc(C(=O)NCc3ccccn3)cnc2-c2ccccc2)ccc1=O | 193 to 194
COC(=O)C1=C(C)NC(C)=C(C(=O)OCc2ccc(OC)cc2)C1c1ccccc1[N+](=O)[O-] (stereo unspecified) | 152
COc1ccc2c(c1)C13CCN(C#N)C(C2)C1C(C)CC(=O)C3 (stereo unspecified) | 202 to 205
COc1ccc2[nH]cc(CCNC(=O)C(F)(F)F)c2c1 | 135 to 136
COc1ccccc1Cc1c(Cl)ncnc1Cl | 95 to 96
COC(=O)c1ccc(C(=O)Nc2c(C)c(C)c3c(c2C)C(c2ccc(C(C)C)cc2)C(C)(C)O3)cc1 (stereo unspecified) | 220 to 223
CCC(CC)c1ccc(Cl)c2nc3n(c12)CCCCN3c1ccc(C)cc1Br | 152 to 155
N#CC(c1ccc(Cl)c(Cl)c1)c1c(Cl)cc([N+](=O)[O-])cc1Cl (stereo unspecified) | 171 to 172
O=C(NCCN1CCC2(CC1)C(=O)NCN2c1ccccc1)c1ccco1 | 196
COc1ccc(C[C@H](N)[C@H](O)c2ccc(F)cc2)cc1 (racemic) | 78 to 79
CC(=O)c1cccc(Oc2cccc(-c3cccc(C(=O)NCCC#N)c3)n2)c1 | 140 to 141
CC(C)NCCNc1ccc2ncc(Br)n2n1 | 87 to 88
Cc1oc(-c2ccc3ccccc3c2)nc1COc1ccc(/C=C/C=O)cc1 | 179 to 180
CC(C)N1CCC(c2c[nH]c3ccc(NS(C)(=O)=O)cc23)CC1 | 104 to 108
Cc1c(C)c2c(c(C)c1N)C(c1ccc(-c3ccccc3)cc1)CO2 (stereo unspecified) | 149 to 150
CCCCCCCN1C(=O)C2CC2(c2ccc(N)cc2)C1=O (stereo unspecified) | 78 to 79
CCc1nc(C(=O)O)c(CC)c(C)c1C(c1cc(F)ccc1F)S(=O)(=O)c1ccc(F)cc1 (stereo unspecified) | 151 to 153
CCONC(=O)c1cccc(-c2nc3ccccc3c(=O)o2)c1 | 179 to 183
Cn1cc2c(C(F)(F)F)cc(Cl)nc2n1 | 124
CCOC(=O)Cc1sc(NC(C)=O)nc1-c1ccc(Cl)cc1 | 187 to 188

Now from value to compound:

melting point [°C] | SMILES
66 to 68 | CC(=O)C1=Cc2ccccc2NN=C1
202 | FC(F)(F)c1ccc(Nc2nccc(-c3cccc(Cl)c3)n2)cc1
77 to 79 | CCCOc1ccccc1C(=O)CCC(=O)O
88 to 90 | CCCCCc1c(C(C)C)nc(C(C)C)c(CO)c1-c1cccc(C)c1
168 to 171 | Cc1cccc2c1NCC(=O)N2
136 to 137 | Cc1ccc2c(c1)C(C(F)(F)F)(C(F)(F)F)c1cc(C)ccc1O2
110 to 115 | Nc1cscc1NC(=S)Nc1c(Cl)csc1Cl
209 to 211 | Cc1ccnc(Nc2nc(-c3cc(-c4ccc(Cl)cc4)no3)cs2)c1
183 to 185 | CCCCNc1ccc2nn(CCC)c(=O)n2n1
111 to 112 | C=CCn1c(=O)n(-c2cccc(C)n2)c2ncccc21
198 | [N-]=[N+]=Nc1nc(NC(=O)c2ccccc2)nc2c1ncn2CC(O)CF (racemic)
145 to 146 | CCN(CC)CCOCCC1CCN(C(=O)N2c3cc(Cl)ccc3C(=O)Nc3cccnc32)CC1
> 300 | Nc1nc(Nc2ccc3nc[nH]c3c2)sc1C(=O)c1cc(Cl)sc1Cl
239 to 240 | CCc1ccc(Nc2nc3cc(NC(=O)c4ccccc4)ccc3o2)cc1
218 to 219 | CCOc1cc(Cc2cnc(N)nc2N)cc2c1OC(C)(C)C=C2C#CC(C)O (stereo unspecified)
82 to 83 | OCc1cc(Cl)c(Cl)c(Cl)n1
55 to 56 | CCOC(=O)C1=CC2(CCC1S(=O)(=O)Nc1ccc(F)cc1Cl)O[C@H]([C@H](O)CO)[C@@H]([C@H](O)CO)O2 (stereo partly specified)
100 to 104 | C=C(CO)[C@H](C(=O)OC(c1ccccc1)c1ccccc1)N1C(=O)[C@@H]2N=C(c3ccccc3)O[C@@H]21
128 to 129 | CS(=O)(=O)c1ccc(-c2ccccc2NC(=N)N2CCCCC2)cc1
53 to 56 | COC(=O)C(=O)C1=C(O)c2ccsc2SC1
149 to 150 | CCOc1ccc(-c2ccc(OC(CC)CCN3CCN(c4cncs4)CC3)cc2)cc1 (stereo unspecified)
60 to 62 | CC(C)=CCCC(C)CCCC(C)=CC=CC(C)=CC(=O)O (stereo unspecified)
169 to 171 | C=C[C@H]1C(=O)N(C)[C@H](C(C)(C)C)N1C(=O)c1ccccc1
